Laboratory results: publication PMC11770318, “Isolation and characterization of a β-galactosidase from Lactobacillus helveticus for industrial processing” (JDS Communications, 2024)

Experiments:
[1] = molecular target: T1, β-galactosidase (LacLM) from Lactobacillus helveticus OSU-PECh-4A (Lactobacillus helveticus, UniProt Q7WTB3+Q7WTB4); experiment: inhibition of lactose hydrolysis; type: biochemical; conditions: end product; substrate lactose; 50 mM sodium phosphate pH 7.0, 37°C
T1 construct: gene lacL; native, purified from Lb. helveticus OSU-PECh-4A by diafiltration and size-exclusion chromatography; GH2 heterodimer, 110 kDa (74 + 36 kDa subunits); 13 peptides identified by LC-MS; no tag

[2] = molecular target: T1, β-galactosidase (LacLM) from Lactobacillus helveticus OSU-PECh-4A; experiment: inhibition of oNPG hydrolysis; type: biochemical; conditions: end product; substrate oNPG; 50 mM sodium phosphate pH 7.0, 37°C; allosteric (authors' interpretation)

T1 sequence (Q7WTB4 whole entry): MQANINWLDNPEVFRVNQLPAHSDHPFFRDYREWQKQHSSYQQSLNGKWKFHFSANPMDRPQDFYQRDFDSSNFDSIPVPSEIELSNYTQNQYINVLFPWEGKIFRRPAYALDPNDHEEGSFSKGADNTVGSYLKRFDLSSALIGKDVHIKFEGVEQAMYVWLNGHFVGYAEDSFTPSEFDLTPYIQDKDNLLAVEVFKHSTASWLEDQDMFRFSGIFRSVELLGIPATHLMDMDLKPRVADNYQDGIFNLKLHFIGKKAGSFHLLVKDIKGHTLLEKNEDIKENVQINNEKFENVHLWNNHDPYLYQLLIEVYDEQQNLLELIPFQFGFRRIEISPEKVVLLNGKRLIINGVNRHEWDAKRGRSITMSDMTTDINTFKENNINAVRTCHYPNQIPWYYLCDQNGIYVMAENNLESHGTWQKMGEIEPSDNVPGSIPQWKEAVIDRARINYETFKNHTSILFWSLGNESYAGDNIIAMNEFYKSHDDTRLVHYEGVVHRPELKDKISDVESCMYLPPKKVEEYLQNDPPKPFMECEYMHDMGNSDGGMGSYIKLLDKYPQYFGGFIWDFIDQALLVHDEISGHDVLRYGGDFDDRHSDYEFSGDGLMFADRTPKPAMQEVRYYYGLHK
T1 sequence (Q7WTB3 whole entry): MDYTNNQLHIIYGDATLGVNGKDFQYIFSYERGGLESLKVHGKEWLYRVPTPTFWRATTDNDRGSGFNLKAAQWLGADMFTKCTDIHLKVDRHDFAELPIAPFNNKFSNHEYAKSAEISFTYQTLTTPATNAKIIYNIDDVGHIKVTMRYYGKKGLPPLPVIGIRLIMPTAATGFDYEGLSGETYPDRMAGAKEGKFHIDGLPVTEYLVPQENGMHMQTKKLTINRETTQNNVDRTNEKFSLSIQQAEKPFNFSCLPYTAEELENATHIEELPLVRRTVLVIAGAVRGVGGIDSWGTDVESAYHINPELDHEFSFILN

Row | % loss of initial activity at 1 mM [1] [%] | % decrease of activity below 50 mM [2] [%] | SMILES
1 | 30 | – | OC[C@H]1OC(O)[C@H](O)[C@@H](O)[C@H]1O (stereo partly drawn) [D-galactose]
2 | – | 30 | OC[C@H]1OC(O)[C@H](O)[C@@H](O)[C@@H]1O (stereo partly drawn) [D-glucose]
